This note sets out measurements from ChEMBL document CHEMBL4118246, “Discovery and evaluation of 3,5-disubstituted indole derivatives as Pim kinase inhibitors” (Bioorg Med Chem Lett, 2018).

The target of test [1] is Serine/threonine-protein kinase pim-1 (Homo sapiens, UniProt P11309).
Description: Inhibition of PIM1 (unknown origin)
Another test deals with MV4-11. Put plainly: Growth inhibition of human MV4-11 cells. In kind it is functional, cell-based.
Test [2] addresses Serine/threonine-protein kinase pim-3 (Homo sapiens, UniProt Q86V86). Kind of test: Inhibition of PIM3 (unknown origin).
Test [3] has as its target Serine/threonine-protein kinase pim-2 (Homo sapiens, UniProt Q9P1W9). Put plainly: Inhibition of PIM2 (unknown origin).
Test [4] concerns HepG2. Put plainly: Cell cycle arrest in human HepG2 cells assessed as accumulation at S phase at 1 uM by FACS analysis relative to control. In kind it is functional.
In test [5] the test system is HepG2. Kind of test: Cell cycle arrest in human HepG2 cells assessed as accumulation at S phase at 10 uM by FACS analysis relative to control. In kind it is functional.
For test [6], the system named is HepG2. Put plainly: Cell cycle arrest in human HepG2 cells assessed as accumulation at G0/G1 phase at 1 uM by FACS analysis relative to control. In kind it is functional.
Test [7] has as its system HepG2. Put plainly: Cell cycle arrest in human HepG2 cells assessed as accumulation at G0/G1 phase at 10 uM by FACS analysis relative to control. In kind it is functional.
For test [8], the system named is HepG2. Put plainly: Cell cycle arrest in human HepG2 cells assessed as accumulation at sub-G1 phase at 10 uM by FACS analysis relative to control. In kind it is functional.
Test [9] concerns HepG2. Kind of test: Cell cycle arrest in human HepG2 cells assessed as accumulation at G2/M phase at 1 uM by FACS analysis relative to control. In kind it is functional.
In test [10] the test system is HepG2. Put plainly: Cell cycle arrest in human HepG2 cells assessed as accumulation at G2/M phase at 10 uM by FACS analysis relative to control. In kind it is functional.
Test [11] concerns HepG2. Put plainly: Cell cycle arrest in human HepG2 cells assessed as accumulation at sub-G1 phase at 1 uM by FACS analysis relative to control. In kind it is functional.

Sequence of Serine/threonine-protein kinase pim-1 (P11309 whole entry): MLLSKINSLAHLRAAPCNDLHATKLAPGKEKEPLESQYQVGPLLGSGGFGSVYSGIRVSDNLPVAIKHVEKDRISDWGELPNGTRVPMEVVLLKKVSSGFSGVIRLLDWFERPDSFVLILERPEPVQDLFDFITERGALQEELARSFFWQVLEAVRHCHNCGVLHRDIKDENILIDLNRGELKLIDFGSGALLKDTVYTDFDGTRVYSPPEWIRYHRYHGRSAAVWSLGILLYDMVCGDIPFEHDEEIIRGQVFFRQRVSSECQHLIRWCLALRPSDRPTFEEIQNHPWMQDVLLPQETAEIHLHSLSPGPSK
Sequence of Serine/threonine-protein kinase pim-2 (Q9P1W9 whole entry): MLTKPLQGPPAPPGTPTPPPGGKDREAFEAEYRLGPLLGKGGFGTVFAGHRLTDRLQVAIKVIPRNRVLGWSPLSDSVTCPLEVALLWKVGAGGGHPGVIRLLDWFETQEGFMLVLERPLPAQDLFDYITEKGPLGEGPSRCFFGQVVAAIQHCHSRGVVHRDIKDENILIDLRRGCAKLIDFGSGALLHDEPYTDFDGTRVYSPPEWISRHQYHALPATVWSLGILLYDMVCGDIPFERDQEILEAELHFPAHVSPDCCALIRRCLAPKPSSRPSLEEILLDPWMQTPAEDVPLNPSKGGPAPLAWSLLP

For `CC(=O)c1ccc(F)c(-c2c[nH]c3ccc(-c4cncc(NCCN(C)C)n4)cc23)c1`, the IC50 in test [1] amounted to 3 nM; in the test with MV4-11, 6300 nM; in [2], 7 nM; in test [3] it was 220 nM.

In the case of `CN(C)CCNc1cncc(-c2ccc3[nH]cc(-c4ccc(N)c(C#N)c4)c3c2)n1`, the Activity with HepG2 [4] was 21.7%; in the test with HepG2 [5] it was 23.1%; in the test on HepG2 [6], 52.3%; with HepG2 [7], 53%; with HepG2 [8], 2.6%; in the test with HepG2 [9], 16.5%. The figures for the Activity in the test on HepG2 [10] and in the test with HepG2 [11] were 15.8% and 3.4%, respectively. The IC50 stood at 5 nM in test [1], 800 nM with MV4-11, 10 nM in test [2] and 259 nM in test [3].

For `CN(C)CCNc1cncc(-c2ccc3[nH]cc(-c4ccnc(N)n4)c3c2)n1`, the values for the IC50 in test [1] and in test [2] were 3 nM and 7 nM, respectively.

Regarding `CN(C)CCCOc1cncc(-c2ccc3[nH]cc(-c4ccc(C(F)(F)F)cc4)c3c2)n1`, the figures for the IC50 in test [1], in [2] and in [3] were 307 nM, 905 nM and greater than 10000 nM, respectively.

Consider `CN(C)CCN(C)c1cncc(-c2ccc3[nH]cc(-c4ccc(C(F)(F)F)cc4)c3c2)n1`, for which the IC50 is 313 nM in test [1], 401 nM in test [2] and greater than 10000 nM in test [3].

On to `CN(C)CCNc1cncc(-c2ccc3[nH]cc(-c4ccccc4F)c3c2)n1`, for which the IC50 in test [1] was found to be 7 nM; in [2], 10 nM; in test [3], 370 nM.

In the case of `NC1CCCN(c2cncc(-c3ccc4[nH]cc(-c5ccccc5F)c4c3)n2)C1` (configuration not stated), the IC50 in [1] amounted to 7 nM; in test [2], 11 nM; in [3], 1380 nM.

Consider `CN(C)CCNc1cncc(-c2ccc3[nH]cc(-c4ccc(F)cc4)c3c2)n1`, for which the IC50 in [1] worked out at 22 nM; in test [2] it was 82 nM; in test [3], 1620 nM.

Consider `FC(F)(F)c1ccc(-c2c[nH]c3ccc(-c4cncc(OC5CCNCC5)n4)cc23)cc1`, for which the figures for the concentration for half-maximal inhibition (IC50) in [1], in test [2] and in [3] were 187 nM, 204 nM and 4350 nM, respectively.

`Brc1ccc2[nH]cc(-c3ccccc3)c2c1` registered an IC50 in test [1] greater than 10000 nM.

As for `CN(C)CCNc1cncc(-c2ccc3[nH]cc(-c4cccc(N)c4)c3c2)n1`, the IC50 in [1] came to 19 nM; in [2], 40 nM; in [3] it was 820 nM.

`CN(C)CCNc1cncc(-c2ccc3[nH]cc(-c4cc(C#N)ccc4F)c3c2)n1`: the Activity worked out at 20.6% in the test with HepG2 [4]; 28.3% with HepG2 [5]; 53.5% in the test with HepG2 [6]; 37.6% with HepG2 [7]; 5.7% in the test on HepG2 [8]; 17% in the test with HepG2 [9]. The Activity in the test on HepG2 [10] was found to be 19%; in the test on HepG2 [11] it was 2.4%. Moreover, the IC50 is 9 nM in [1], 2900 nM in the test on MV4-11, 18 nM in [2] and 841 nM in test [3].

With `O=C1NCCN1c1cncc(-c2ccc3[nH]cc(-c4ccccc4F)c3c2)n1`, the figures for the IC50 in test [1], in [2] and in [3] were 257 nM, 273 nM and greater than 10000 nM, respectively.

Take `CN(C)CCNc1cncc(-c2ccc3[nH]cc(-c4cc(C(=O)O)ccc4F)c3c2)n1`: the IC50 in test [1] turned out to be 23 nM; in [2], 137 nM; in test [3], 1430 nM.

As to `CN(C)CCCN(C)c1cncc(-c2ccc3[nH]cc(-c4ccc(C(F)(F)F)cc4)c3c2)n1`, the results for the IC50 in [1], in test [2] and in test [3] were 209 nM, 475 nM and greater than 10000 nM, respectively.

On to `Cc1ccc(-c2c[nH]c3ccc(-c4cncc(NCCN(C)C)n4)cc23)cc1`, for which the IC50 was determined as 19 nM in test [1], 33 nM in [2] and 1800 nM in test [3].

Take `COc1ccc(-c2c[nH]c3ccc(-c4cncc(NCCN(C)C)n4)cc23)cc1`: the IC50 in test [1] is 9 nM; in test [2], 30 nM; in test [3], 870 nM.

Turning to `CN(C)CCNc1cncc(-c2ccc3[nH]cc(-c4ccc(F)c(C(F)(F)F)c4)c3c2)n1`, the IC50 was 144 nM in test [1], 183 nM in test [2] and 4320 nM in test [3].

As for `CN(C)CCNc1cncc(-c2ccc3[nH]cc(-c4ccc(OC(F)(F)F)cc4)c3c2)n1`, the IC50 in test [1] stood at 96 nM; in test [2], 236 nM; in test [3] it was 4440 nM.

As for `CN1CCC(CNc2ccc3ncc(-c4cccc(OC(F)(F)F)c4)n3n2)CC1` [SGI-1776], the Activity amounted to 19.8% in the test on HepG2 [4]; 8.3% with HepG2 [5]; 44.2% in the test with HepG2 [6]; 36.9% in the test with HepG2 [7]; 52.3% in the test on HepG2 [8]; 13.3% in the test on HepG2 [9]. Further, the Activity in the test on HepG2 [10] turned out to be 1.9%; in the test with HepG2 [11] it was 16%. 30 nM corresponded to half-maximal inhibition with MV4-11 (IC50).

Regarding `CN(C)CCNc1cncc(-c2ccc3[nH]cc(-c4ccc(S(C)(=O)=O)cc4)c3c2)n1`, the Activity with HepG2 [4] was found to be 20.7%; with HepG2 [5], 20.9%; in the test on HepG2 [6], 51.7%; with HepG2 [7], 52.5%; in the test with HepG2 [8] it was 2.7%; in the test with HepG2 [9], 19.3%. For the same compound, the Activity in the test with HepG2 [10] is on record as 17.9%; in the test on HepG2 [11], 1.6%. Besides, the IC50 in test [1] stood at 21 nM; with MV4-11, 7300 nM; in [2], 50 nM; in test [3] it was 2160 nM.

As to `CN(C)CCNc1cncc(-c2ccc3[nH]cc(-c4ccc(C(F)(F)F)cc4)c3c2)n1`, the IC50 in test [1] was found to be 67 nM; in test [2] it was 247 nM; in [3] it was 5800 nM.

Consider `CN(C)CCNc1cncc(-c2ccc3[nH]cc(-c4cccc(C(F)(F)F)c4)c3c2)n1`, for which the IC50 is 35 nM in test [1], 69 nM in [2] and 2260 nM in [3].

Take `CN(C)CCNc1cncc(-c2ccc3[nH]cc(-c4ccc(C#N)cc4)c3c2)n1`: the figures for the 50% inhibitory concentration (IC50) in test [1], in [2] and in test [3] were 33 nM, 155 nM and 2540 nM, respectively.

`COc1cccc(-c2c[nH]c3ccc(-c4cncc(NCCN(C)C)n4)cc23)c1`: the results for the IC50 in [1], in test [2] and in test [3] were 7 nM, 19 nM and 560 nM, respectively.

Take `NCCNc1cncc(-c2ccc3[nH]cc(-c4ccccc4F)c3c2)n1`: the IC50 in [1] stood at 5 nM; in test [2], 7 nM; in test [3], 230 nM.

In the case of `CN(C)CCNc1cncc(-c2ccc3[nH]cc(-c4ccc(N)cc4)c3c2)n1`, the IC50 stood at 8 nM in test [1], 29 nM in test [2] and 460 nM in test [3].

Consider `CN(C)CCNc1cncc(-c2ccc3[nH]cc(-c4ccc(N)cc4F)c3c2)n1`, for which the IC50 was 3 nM in [1], 1700 nM in the test on MV4-11, 9 nM in test [2] and 267 nM in test [3].

As to `CN(C)CCNc1cncc(-c2ccc3[nH]cc(-c4cccc(OC(F)(F)F)c4)c3c2)n1`, the IC50 was determined as 134 nM in test [1], 128 nM in test [2] and 2780 nM in test [3].

As to `CCOc1cncc(-c2ccc3[nH]cc(-c4ccccc4)c3c2)n1`, the IC50 in [1], in test [2] and in [3] was greater than 10000 nM in each case.

In the case of `CN(C)CCNc1cncc(-c2ccc3[nH]cc(-c4ccc(-c5ccccc5)cc4)c3c2)n1`, the concentration for half-maximal inhibition (IC50) in test [1] turned out to be 160 nM; in test [2] it was 417 nM; in test [3] it was 5330 nM.

Take `CN(C)CCNc1cncc(-c2ccc3[nH]cc(-c4ccc(C(F)(F)F)c(F)c4)c3c2)n1`: the values for the IC50 in test [1], in [2] and in test [3] were 256 nM, 589 nM and 7950 nM, respectively.

Regarding `CN(C)CCCNc1cncc(-c2ccc3[nH]cc(-c4ccc(C(F)(F)F)cc4)c3c2)n1`, the 50% inhibitory concentration (IC50) in test [1] was 195 nM; in test [2] it was 368 nM; in test [3], greater than 10000 nM.

For `Fc1ccccc1-c1c[nH]c2ccc(-c3cncc(N4CCCNCC4)n3)cc12`, the IC50 came to 12 nM in test [1], 16 nM in test [2] and 537 nM in test [3].

In the case of `CN(C)CCNc1cncc(-c2ccc3[nH]cc(-c4cccc(C#N)c4)c3c2)n1`, the IC50 in [1] was determined as 21 nM; in [2], 60 nM; in [3], 770 nM.

As to `OCCc1cncc(-c2ccc3[nH]cc(-c4ccccc4F)c3c2)n1`, the IC50 in test [1] was 885 nM; in test [2] it was 3050 nM; in test [3], greater than 10000 nM.

Turning to `CN(C)CCOc1cncc(-c2ccc3[nH]cc(-c4ccc(C(F)(F)F)cc4)c3c2)n1`, the figures for the IC50 in test [1], in test [2] and in [3] were 443 nM, 877 nM and greater than 10000 nM, respectively.

As to `CN(C)CCNc1cncc(-c2ccc3[nH]cc(-c4cccc(F)c4)c3c2)n1`, the IC50 in test [1] is 30 nM; in test [2], 35 nM; in [3], 650 nM.

On to `Cc1cccc(-c2c[nH]c3ccc(-c4cncc(NCCN(C)C)n4)cc23)c1`, for which the IC50 in test [1] came out at 21 nM; in [2], 29 nM; in test [3], 830 nM.

Take `FC(F)(F)c1ccc(-c2c[nH]c3ccc(-c4cncc(N5CCNCC5)n4)cc23)cc1`: the results for the IC50 in test [1], in [2] and in test [3] were 260 nM, 241 nM and 2120 nM, respectively.
